Measurements as given in patent US20210085630A1, “PHARMACEUTICAL COMPOSITION AND USE THEREOF IN PREPARING DRUG FOR TREATING TUMOR MULTI-DRUG RESISTANCE” (SICHUAN JIUZHANG BIOLOGICAL SCIENCE AND TECHNOLOGY CO., LTD., priority 2018, published 2021).
Where a name gives a salt, the structure may show the parent alone. Marks after values point to notes of the source that are not given here.

Experiments:
[1] = tested on: PD-1/PD-L1; experiment: PD-1/PD-L1 expression rate (immunohistochemical SP method), drug-resistant B16 melanoma tumor tissue; format: in vivo; details: transplanted tumor tissues of drug-resistant B16 melanoma in mice, Example 3 regimen
Source text: (§1) The positive expression rate of PD-1/PD-L1 in tumor tissues was detected by immunohistochemical SP method.

[2] = tested on: multi-drug resistant Lewis lung cancer; experiment: Tumor weight and inhibition rate, transplanted multi-drug resistant Lewis lung cancer; format: in vivo, mice; details: multi-drug resistant Lewis lung cancer mice; test drug 30 mg/kg i.p. 5 days, then gemcitabine 300 mg/kg or dacarbazine 60 mg/kg every other day
Description: Lewis lung cancer cell lines were induced by the increased gradient concentration of dacarbazine and gemcitabine, and established by clone screening, then cultured without drug before the experiment.
(§2) After the drug was removed from the drug-resistant cell lines, the cell concentration was adjusted to 1×10^7/ml with the culture medium. 1×10^7/ml of cells were subcutaneously injected into the right armpit of mice, 0.1 ml per mouse.
(§3) After the average diameter of tumor reached […], the mice were randomly divided into test drug group 1, test drug group 2, test drug group 3, test drug group 4, test drug group 5, test drug group 6, positive drug group, and negative group, respectively.
(§4) Test drug group: the test drug group was first intraperitoneally injected, once a day, 30 mg/kg/time, for 5 consecutive days; administration was stopped, and the positive drug was given by intraperitoneal injection on the next day; wherein the positive drug dacarbazine was administrated once every other day, 60 mg/kg/time; wherein the positive drug gemcitabine was given once every other day, 300 mg/kg/time.
(§5) Positive drug group: positive drug dacarbazine was given once every other day, 60 mg/kg/time; positive drug gemcitabine was given once every other day, 300 mg/kg/time.
(§6) Negative group: normal saline was intraperitoneally injected, once a day, for 15 consecutive days.
(§7) After completion of administration, the experiment was stopped, and the mice were killed by cervical dislocation and weighed. The tumor was stripped and weighed, to calculate the tumor inhibition rate.

[3] = tested on: PD-1/PD-L1; experiment: PD-1/PD-L1 expression rate in transplanted tumor tissues, multidrug resistance model; format: in vivo; details: transplanted tumor tissues of B16 melanoma mice with multidrug resistance (as titled), Example 5 regimen
Source text: as §1

[4] = tested on: CD4+T and CD8+T lymphocytes; experiment: Number of CD4+T and CD8+T lymphocytes in transplanted tumor of multidrug-resistant Lewis lung cancer mice; format: in vivo; details: average of 6 high power fields
Description: (§8) The number of CD4+T and CD8+T lymphocytes was analyzed by immunofluorescence staining, and the average number of CD4+T and CD8+T cells infiltrated in 6 high power fields was counted.

[5] = tested on: dacarbazine-resistant B16 melanoma; experiment: Tumor weight and inhibition rate, transplanted dacarbazine-resistant B16 melanoma; format: in vivo; details: dacarbazine-resistant B16 melanoma mice; test drug 30 mg/kg i.p. once a day 5 days, then dacarbazine 60 mg/kg every other day; positive drug dacarbazine 60 mg/kg
Description: B16 melanoma cell lines were induced by the increased gradient concentration of dacarbazine, and established by clone screening and cultured without drug before the experiment.
as §2, §3, §4, §5, §6, §7

[6] = tested on: drug-resistant A375 melanoma cell lines; experiment: MTT: IC50 of dacarbazine against drug-resistant A375 cells and drug-resistant index; format: cell-based, human
Description: A375 melanoma cell lines were exposed to dacarbazine (400 μg/ml) for 3 months, and centrifuged, to culture dacarbazine-resistant A375 cells. The cells were observed every day, and taken through 3 passages for about 3 days, to ensure cell viability.
Above-mentioned cell lines and drug-resistant cell lines in the logarithmic growth phase were selected, the cell concentration was adjusted to 8×10^3 cells/well, and then cells were seeded in a 96-well plate. For the experiment, there were three groups: blank group, control group and dacarbazine group. In the blank group, only medium was added, without inoculating cells; in the control group, medium was added, and cells were inoculated; in the dacarbazine group, medium was added, cells were inoculated, and then dacarbazine was added at different concentrations. The plates were placed in an incubator and incubated for 48 h, then 5 mg/ml MTT (20 μl) was added to each well, and the plate was further incubated for 4 h.
Drug-resistant index=IC50 value of drug-resistant cells/IC50 value of sensitive cells

[7] = tested on: CD4+T and CD8+T lymphocytes; experiment: Number of CD4+T and CD8+T cells (immunofluorescence), drug-resistant B16 melanoma transplanted tumor; format: in vivo; details: transplanted tumor of drug-resistant B16 melanoma in mice, average of 6 high power fields
Description: as §8

[8] = tested on: PD-1/PD-L1; experiment: PD-1/PD-L1 expression rate in tumor tissues of Opdivo-resistant B16 melanoma mice; format: in vivo; details: tumor tissues of drug-resistant (Opdivo) B16 melanoma mice
Source text: as §1

[9] = tested on: CD4+T and CD8+T lymphocytes; experiment: Number of CD4+T and CD8+T cells in Opdivo-resistant Lewis lung cancer mice; format: in vivo; details: drug-resistant (Opdivo) Lewis lung cancer mice, average of 6 high power fields
Description: as §8

[10] = tested on: Opdivo-resistant Lewis lung cancer; experiment: Antitumor effect (tumor volume, weight, inhibition rate) in Opdivo-resistant Lewis lung cancer mice; format: in vivo
Description: (§9) The concentration of cell lines was adjusted to 1×10^7/ml with the culture medium. 1×10^7/ml of cells were subcutaneously injected into the right armpit of mice, 0.1 ml per mouse.
(§10) The model mice were randomly divided into groups, eight for one group, and included test drug group 1, test drug group 2, test drug group 3, test drug group 4, positive drug Opdivo group, single drug chlorogenic acid group, test drug 1+Opdivo group, test drug 2+Opdivo group, test drug 3+Opdivo group, test drug 4+Opdivo group, and negative group, respectively.
(§11) Test drug group: from the second day after stopping administration to the model, the group received drug by intraperitoneal injection, once a day, 30 mg/kg.
(§12) Single drug group: from the second day after stopping administration to the model, the group received drug by intraperitoneal injection, once a day, 30 mg/kg.
(§13) Test drug+Opdivo group: from the second day after stopping administration to the model, the group received the test drug by intraperitoneal injection, once a day, and the test drug was stopped after administrating for 5 consecutive days; on the next day, Opdivo was intraperitoneally injected, once every other day, with the dosage of 30 mg/kg.
(§14) Positive drug group: once every other day, 30 mg/kg.
(§15) Negative group: normal saline was intraperitoneally injected, once a day, the same amount of saline.
(§16) Before each administration, the tumor volume was measured, and the experiment was stopped when the average tumor volume of negative group was greater than 1.5 cm^3.
as §7

[11] = tested on: B16 melanoma cell lines; experiment: Establishment of Opdivo-resistant tumor model, tumor volume over time, B16 melanoma; format: in vivo; details: B16 melanoma mice, Opdivo 30 mg/kg i.p. every other day
Description: as §9

[12] = tested on: Opdivo-resistant B16 melanoma; experiment: Antitumor effect (tumor volume, weight, inhibition rate) in Opdivo-resistant B16 melanoma mice; format: in vivo
Description: as §9, §10, §11, §12, §13, §14, §15, §16, §7

[13] = tested on: PD-1/PD-L1; experiment: PD-1/PD-L1 expression rate in tumor tissues of Opdivo-resistant Lewis lung cancer mice; format: in vivo; details: tumor tissues of drug-resistant (Opdivo) Lewis lung cancer mice
Source text: as §1

[14] = tested on: Lewis lung cancer cell lines; experiment: Establishment of Opdivo-resistant tumor model, tumor volume over time, Lewis lung cancer; format: in vivo; details: Lewis lung cancer mice, Opdivo 30 mg/kg i.p. every other day
Description: as §9

[15] = tested on: CD4+T and CD8+T lymphocytes; experiment: Number of CD4+T and CD8+T cells in Opdivo-resistant B16 melanoma mice; format: in vivo; details: drug-resistant (Opdivo) B16 melanoma mice, average of 6 high power fields
Description: as §8

[16] = 30 mg/kg i.p. once a day, + Opdivo groups: test drug 5 days, then Opdivo 30 mg/kg every other day
[17] = 30 mg/kg i.p., + Opdivo groups 30 + 30 mg/kg

**Q.** With `CN(C)/N=N/c1[nH]cnc1C(N)=O` [Dacarbazine, 5-(3,3-dimethyl-1-triazenyl)-4-carboxamideimidazolium citrate, reference compound] as the compound, how does the “Expression rate of PD-1/PD-L1, Positive PD-L1” value (“Expression rate of PD-1/PD-L1” for short) [1] read?
**A.** 72.51%

**Q.** And the “Tumor weight” value [2]?
**A.** 2.33 ± 0.52 g

**Q.** And the “Tumor-inhibition rate (%)” value [2]?
**A.** 1.27%

**Q.** And the “Expression rate of PD-1/PD-L1” value [3]?
**A.** 72.51%

**Q.** And the “CD4 + T cells (number)” value [4]?
**A.** 74.52 ± 7.38

**Q.** And the “CD8 + T cells (number)” value [4]?
**A.** 123.74 ± 12.85

**Q.** What about the “Tumor inhibition rate (%)” value [5] of the same compound?
**A.** 4.55%

**Q.** What about the “Tumor weight” value [5] of the same compound?
**A.** 2.52 ± 0.77 g

**Q.** And the IC50 ([6]; Homo sapiens, A-375, dacarbazine against drug-resistant A375 melanoma cell lines, MTT, 48 h, read-out: IC50 Concentration)?
**A.** 560 mg/L

**Q.** And the Drug-resistant index ([6]; IC50 of drug-resistant cells/IC50 of sensitive cells, A375)?
**A.** 6.22

**Q.** And the “CD4 + T cells (number)” value [7]?
**A.** 63.67 ± 5.83

**Q.** And the “CD8 + T cells (number)” value [7]?
**A.** 91.23 ± 3.84

**Q.** With “Opdivo: human programmed death receptor-1 (PD-1) blocking antibody; PD-1 inhibitor” as the compound, how does the “Expression rate of PD-1/PD-L1” value [8] read?
**A.** 85.87%

**Q.** What about the “CD4 + T cells (number)” value [9] of the same compound?
**A.** 64.22 ± 7.74

**Q.** What about the “CD8 + T cells (number)” value [9] of the same compound?
**A.** 117.81 ± 7.99

**Q.** What about the “continuous treatment effect / effect on tumor volume control (in words)” value [10] of the same compound?
**A.** not obvious

**Q.** What about the “Tumor volume (cm^3)” value [10, 16] of the same compound?
**A.** 1.616 ± 0.772 cm^3

**Q.** And the “Tumor inhibition rate (%)” value [10, 17]?
**A.** 2.38%

**Q.** And the “Tumor weight” value [10, 17]?
**A.** 2.52 ± 0.83 g

**Q.** What about the “Tumor volume, Model group (cm^3)” value ([11]; 2 d after inoculation) of the same compound?
**A.** 0.00 ± 0.000 ** cm^3

**Q.** What about the “Tumor volume, Model group (cm^3)” value ([11]; 4 d after inoculation) of the same compound?
**A.** 0.084 ± 0.047 ** cm^3

**Q.** What about the “Tumor volume, Model group (cm^3)” value ([11]; 6 d after inoculation) of the same compound?
**A.** 0.106 ± 0.043 ** cm^3

**Q.** And the “Tumor volume, Model group (cm^3)” value ([11]; 8 d after inoculation)?
**A.** 0.128 ± 0.062 ** cm^3

**Q.** And the “Tumor volume, Model group (cm^3)” value ([11]; 10 d after inoculation)?
**A.** 0.179 ± 0.147 ** cm^3

**Q.** And the “Tumor volume, Model group (cm^3)” value ([11]; 12 d after inoculation)?
**A.** 0.286 ± 0.116 ** cm^3

**Q.** And the “Tumor volume, Model group (cm^3)” value ([11]; 14 d after inoculation)?
**A.** 0.881 ± 0.204 cm^3

**Q.** And the “continuous treatment effect / effect on tumor volume control (in words)” value [12]?
**A.** not obvious

**Q.** What about the “Tumor volume (cm^3)” value [12, 16] of the same compound?
**A.** 1.793 ± 0.842 cm^3

**Q.** What about the “Tumor inhition rate (%)” value [12, 17] of the same compound?
**A.** 1.41%

**Q.** What about the “Tumor weight” value [12, 17] of the same compound?
**A.** 2.79 ± 1.13 g

**Q.** What about the “Expression rate of PD-1/PD-L1” value [13] of the same compound?
**A.** 72.77%

**Q.** And the “Tumor volume, Model group (cm^3)” value ([14]; 4 d after inoculation)?
**A.** 0.00 ± 0.000 ** cm^3

**Q.** What about the “Tumor volume, Model group (cm^3)” value ([14]; 6 d after inoculation) of the same compound?
**A.** 0.073 ± 0.052* cm^3

**Q.** What about the “Tumor volume, Model group (cm^3)” value ([14]; 8 d after inoculation) of the same compound?
**A.** 0.098 ± 0.075** cm^3

**Q.** And the “Tumor volume, Model group (cm^3)” value ([14]; 10 d after inoculation)?
**A.** 0.121 ± 0.101** cm^3

**Q.** What about the “Tumor volume, Model group (cm^3)” value ([14]; 12 d after inoculation) of the same compound?
**A.** 0.164 ± 0.084** cm^3

**Q.** And the “Tumor volume, Model group (cm^3)” value ([14]; 14 d after inoculation)?
**A.** 0.226 ± 0.113** cm^3

**Q.** And the “Tumor volume, Model group (cm^3)” value ([14]; 16 d after inoculation)?
**A.** 0.464 ± 0.154* cm^3

**Q.** What about the “Tumor volume, Model group (cm^3)” value ([14]; 18 d after inoculation) of the same compound?
**A.** 0.984 ± 0.236 cm^3

**Q.** What about the “CD4 + T cells (number)” value [15] of the same compound?
**A.** 74.63 ± 6.35

**Q.** And the “CD8 + T cells (number)” value [15]?
**A.** 88.61 ± 5.82
